Source: the NIST ThermoML archive (doi:10.1021/je0340755)
± gives the expanded uncertainty stated by the source.

Assay: xn = mol fraction of the nth substance listed
Details: 101.3 kPa, Liquid; for viscosity: Capillary tube (Ostwald / Ubbelohde) method

CC(O)C(C)O (configuration not stated) [2,3-butanediol] + O
Details | mass density, 298.15 K [kg/m3] | mass density, 308.15 K [kg/m3] | mass density, 318.15 K [kg/m3] | speed of sound, 298.15 K [m/s] | speed of sound, 308.15 K [m/s] | speed of sound, 318.15 K [m/s] | viscosity, 298.15 K [mPa·s] | viscosity, 308.15 K [mPa·s] | viscosity, 318.15 K [mPa·s]
x2 = 0.0546 | 999.76 ± 0.35 | 993.26 ± 0.36 | 985.33 ± 0.38 | 1483 ± 6.2 | 1446.8 ± 6.1 | 1418.4 ± 6 | 41.89 ± 0.2 | 21.57 ± 0.12 | 12.04 ± 0.086
x2 = 0.1435 | 1001.87 ± 0.34 | 995.29 ± 0.34 | 987.34 ± 0.36 | 1501.3 ± 6.2 | 1464.7 ± 6.1 | 1436 ± 6 | 36.73 ± 0.17 | 19.07 ± 0.11 | 10.64 ± 0.081
x2 = 0.2458 | 1004.58 ± 0.33 | 997.92 ± 0.32 | 989.9 ± 0.34 | 1520.7 ± 6.3 | 1483.6 ± 6.2 | 1454.5 ± 6.1 | 30.5 ± 0.15 | 16.07 ± 0.096 | 8.953 ± 0.076
x2 = 0.3539 | 1007.87 ± 0.33 | 1001.1 ± 0.31 | 993.04 ± 0.32 | 1548.5 ± 6.4 | 1510.7 ± 6.3 | 1481.1 ± 6.2 | 24.04 ± 0.12 | 12.95 ± 0.086 | 7.207 ± 0.072
x2 = 0.4502 | 1011.19 ± 0.33 | 1004.34 ± 0.31 | 996.28 ± 0.31 | 1576.9 ± 6.5 | 1538.4 ± 6.3 | 1508.2 ± 6.2 | 18.63 ± 0.1 | 10.32 ± 0.079 | 5.737 ± 0.069
x2 = 0.4989 | 1013.01 ± 0.33 | 1006.11 ± 0.31 | 998.08 ± 0.3 | 1589.5 ± 6.5 | 1550.7 ± 6.4 | 1520.3 ± 6.3 | 16.08 ± 0.093 | 9.06 ± 0.076 | 5.036 ± 0.068
x2 = 0.5503 | 1014.99 ± 0.33 | 1008.06 ± 0.31 | 1000.07 ± 0.29 | 1604.9 ± 6.5 | 1565.8 ± 6.4 | 1535.1 ± 6.3 | 13.54 ± 0.086 | 7.8 ± 0.073 | 4.339 ± 0.067
x2 = 0.6581 | 1019.13 ± 0.33 | 1012.2 ± 0.31 | – | 1637.2 ± 6.6 | 1597.3 ± 6.5 | – | 8.918 ± 0.075 | 5.443 ± 0.069 | 3.047 ± 0.065
x2 = 0.7518 | 1021.95 ± 0.33 | 1015.17 ± 0.31 | – | 1667.8 ± 6.7 | 1627.1 ± 6.6 | – | 5.811 ± 0.069 | 3.773 ± 0.066 | 2.15 ± 0.064
x2 = 0.8626 | 1021.36 ± 0.32 | 1015.24 ± 0.31 | – | 1673.2 ± 6.7 | 1632.4 ± 6.6 | – | 3.267 ± 0.065 | 2.265 ± 0.064 | 1.37 ± 0.063
x2 = 0.9092 | 1017.89 ± 0.31 | 1012.39 ± 0.29 | – | 1657.9 ± 6.7 | 1617.5 ± 6.6 | – | 2.463 ± 0.064 | 1.743 ± 0.064 | 1.108 ± 0.063
x2 = 0.9148 | 1017.25 ± 0.31 | 1011.85 ± 0.29 | – | 1651.5 ± 6.7 | 1611.2 ± 6.5 | – | 2.372 ± 0.064 | 1.682 ± 0.064 | 1.078 ± 0.063
x2 = 0.9248 | 1015.95 ± 0.31 | 1010.74 ± 0.29 | – | 1645.4 ± 6.7 | 1605.3 ± 6.5 | – | 2.21 ± 0.064 | 1.574 ± 0.064 | 1.025 ± 0.063
x2 = 0.9305 | 1015.11 ± 0.3 | 1010.02 ± 0.29 | – | 1640.3 ± 6.6 | 1600.3 ± 6.5 | – | 2.118 ± 0.064 | 1.512 ± 0.064 | 0.995 ± 0.063
x2 = 0.935 | 1014.4 ± 0.3 | 1009.4 ± 0.28 | – | – | 1597.2 ± 6.5 | – | 2.044 ± 0.064 | 1.463 ± 0.064 | 0.969 ± 0.063
x2 = 0.9452 | 1012.61 ± 0.29 | 1007.83 ± 0.28 | – | – | 1588.3 ± 6.5 | – | 1.878 ± 0.064 | 1.352 ± 0.063 | 0.915 ± 0.063
x2 = 0.9542 | 1010.78 ± 0.29 | 1006.24 ± 0.27 | – | 1616.9 ± 6.6 | 1577.5 ± 6.4 | – | 1.729 ± 0.064 | 1.254 ± 0.063 | 0.866 ± 0.063
x2 = 0.9703 | 1006.89 ± 0.28 | 1002.81 ± 0.26 | – | – | 1570.9 ± 6.4 | – | 1.453 ± 0.064 | 1.074 ± 0.063 | 0.775 ± 0.063
x2 = 0.98 | 1004.1 ± 0.27 | 1000.33 ± 0.26 | – | – | 1557.9 ± 6.4 | – | 1.278 ± 0.063 | 0.962 ± 0.063 | 0.719 ± 0.063
x2 = 0.9903 | 1000.7 ± 0.26 | 997.3 ± 0.26 | – | – | 1547.6 ± 6.3 | – | 1.083 ± 0.063 | 0.839 ± 0.063 | 0.657 ± 0.063
x2 = 0.9925 | 999.91 ± 0.26 | 996.59 ± 0.27 | – | – | 1543.9 ± 6.3 | – | 1.04 ± 0.063 | 0.812 ± 0.063 | 0.644 ± 0.063
x2 = 0.9951 | 998.95 ± 0.26 | 995.73 ± 0.27 | – | 1577.9 ± 6.5 | 1539.4 ± 6.3 | – | 0.99 ± 0.063 | 0.779 ± 0.063 | 0.627 ± 0.063
